Test results published in ChEMBL document CHEMBL1126831, “A structure-activity study of four dopamine D-1 and D-2 receptor antagonists, representing the phenylindan, -indene, and -indole structural classes of compounds” (J Med Chem, 1993).

Target: D(2) dopamine receptor (Rattus norvegicus, UniProt P61169)
Assay: Binding affinity towardst dopamine D2 receptor by displacement of [3H]-SPI radioligand in rat striatal membranes
Assay type: cell membranes, Membrane

D(2) dopamine receptor, sequence (P61169 whole entry): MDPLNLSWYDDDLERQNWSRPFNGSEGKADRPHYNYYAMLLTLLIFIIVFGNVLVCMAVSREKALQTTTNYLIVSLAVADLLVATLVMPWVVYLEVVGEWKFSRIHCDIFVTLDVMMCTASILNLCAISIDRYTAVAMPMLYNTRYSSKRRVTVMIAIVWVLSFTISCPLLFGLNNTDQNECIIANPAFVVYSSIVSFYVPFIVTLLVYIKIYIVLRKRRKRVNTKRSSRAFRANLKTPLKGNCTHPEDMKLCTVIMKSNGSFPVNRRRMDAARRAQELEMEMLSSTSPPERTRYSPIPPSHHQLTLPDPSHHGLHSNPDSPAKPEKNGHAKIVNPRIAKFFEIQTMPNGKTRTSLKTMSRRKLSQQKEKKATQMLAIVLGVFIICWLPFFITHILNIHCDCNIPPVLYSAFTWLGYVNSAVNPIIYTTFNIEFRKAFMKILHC

SMILES | IC50
CN1CCC(C2=CC(c3ccc(F)cc3)c3ccc(Cl)cc32)CC1 (stereo not drawn) | 19 nM
CN1CCN(C2CC(c3ccc(F)cc3)c3ccc(Cl)cc32)CC1 (stereo not drawn) | 12 nM
CN1CC=C(C2=CC(c3ccc(F)cc3)c3ccc(Cl)cc32)CC1 (stereo not drawn) | 5.1 nM

Target: D(1A) dopamine receptor (Rattus norvegicus, UniProt P18901)
Sequence (P18901 whole entry): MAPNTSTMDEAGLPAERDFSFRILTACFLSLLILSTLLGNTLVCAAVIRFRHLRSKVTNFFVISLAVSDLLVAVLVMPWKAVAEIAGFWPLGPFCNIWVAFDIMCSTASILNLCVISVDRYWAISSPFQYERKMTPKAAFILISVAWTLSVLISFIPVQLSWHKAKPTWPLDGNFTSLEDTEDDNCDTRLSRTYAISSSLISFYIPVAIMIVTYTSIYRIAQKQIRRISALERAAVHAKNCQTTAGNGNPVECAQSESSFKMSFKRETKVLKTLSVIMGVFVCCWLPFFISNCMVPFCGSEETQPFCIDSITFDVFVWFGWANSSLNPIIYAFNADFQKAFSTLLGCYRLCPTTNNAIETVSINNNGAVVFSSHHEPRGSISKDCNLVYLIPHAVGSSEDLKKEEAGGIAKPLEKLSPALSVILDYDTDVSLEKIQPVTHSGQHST
Assay: Binding affinity towards dopamine receptor D1 by displacement of [3H]-SCH- radioligand in rat striatal membranes
Assay type: cell membranes, Membrane

SMILES | IC50
CN1CCC(C2=CC(c3ccc(F)cc3)c3ccc(Cl)cc32)CC1 (stereo not drawn) | 12 nM
OCCN1CCN([C@@H]2C[C@@H](c3ccc(F)cc3)c3ccc(C(F)(F)F)cc32)CC1 [TEFLUDAZINE] | 19 nM
CN1CC=C(c2cn(-c3ccc(F)cc3)c3ccc(Cl)cc23)CC1 | 9.8 nM
CN1CCN(C2CC(c3ccc(F)cc3)c3ccc(Cl)cc32)CC1 (stereo not drawn) | 9.5 nM
CN1CC=C(C2=CC(c3ccc(F)cc3)c3ccc(Cl)cc32)CC1 (stereo not drawn) | 23 nM
